Assay results reported in patent US6905852B1, “Herbicide-resistant protoporphyrinogen oxidase isolated from Nicotiana tabacum” (Nihon Nohyaku Co., Ltd., priority 1997, dated 2005).

Legend:
Type in all cases: cell-based, Nicotiana tabacum
[1] = test system: sensitive cell line; assay: Accumulation of protoporphyrin IX in callus; conditions: 1,200 nM compound H
[2] = test system: tobacco callus; assay: Selection course of callus lines tolerant to the photobleaching herbicide
Protocol: Using a medium containing the compound H containing two times concentration (20 nM) of the concentration at which tobacco callus completely dies, the selection of tobacco callus tolerant to photobleaching herbicide has been started. 1×10^5 of tobacco callus have been selected (Table 2), in the course of re-generation from 1×10^10 of the protoplast.
number of protoplast given: 1×10^10

[3] = test system: ETR-056 line; assay: Accumulation of protoporphyrin IX in callus; conditions: 1,200 nM compound H
Protocol: (§1) The present inventors have tried to analyze the resistant mechanism in the resistant strain tolerant to photobleaching herbicide. It has been reported that in a plant treated by photobleaching herbicide, protoporphyrin IX is accumulated, the present inventors tried to measure the accumulation of protoporphyrin IX periodically. A resistant callus which has been subcultured in MS liquid medium containing 1,200 nM of compound H under light condition was cultured for 24 hours in a dark condition, then transplanted into MS liquid medium containing 1,200 nM of compound H, and after 6, 12, 18, 24, 32 and 48 hours later, the callus was collected, and protoporphyrin IX was measured. The extraction and assay of the protoporphyrin 1× from the callus were conducted as follows (Matringe, M. et al. (1989) Biochem, J. 260:231-235.). That is, 500 mg (wet weight) of the callus was homogenized in a mortar, and extracted with 7.5 ml of acetone: 1N NH4OH (9:1). The extract was centrifuged at 3,000×g for 10 minutes, then the supernatant was collected. To the supernatant 2.5 ml of hexane was added and mixed sufficiently, then, the lower layer was recovered. Further, after washing with hexane two twice, the amount of protoporphyrin IX obtained in the lower layer was measured from the value of Ex 405 nm-Em 631.5 nm by a fluorescence spectrophotometer. All the extraction procedures were conducted under the safety light.

[4] = test system: ETR-253; assay: Accumulation of protoporphyrin IX in callus; conditions: 1,200 nM compound H
Protocol: as §1

[5] = test system: ETR-245; assay: Accumulation of protoporphyrin IX in callus; conditions: 1,200 nM compound H
Protocol: as §1

[6] = test system: tobacco callus; assay: Sensitivity of tobacco callus to compound H (survival)
Protocol: Tobacco (Nicotiana tabacum CV. Xanthi NC) was grown to 40 cm tall in a green house. And a leaf was cut, and the leaf was cut to square-shape of 5 cm width by a knife, then immersed in 70% ethanol for 30 seconds and in an aqueous solution of sodium hypochlorite (the effective concentration of chlorine was 1%) for 15 minutes to conduct surface-sterilization. After washing it for three times by sterilized water and removal of epidermis, the leaf fragment was suspended in 0.6M manitol (pH 5.8) containing an enzyme solution (1% cellulase onozuka R-10 and 0.05% macerozyme R-10 (manufactured by Yakult Co., Ltd.)) at 26° C. for three hours. After the enzyme treatment, protoplasts were washed with centrifugation by Murasige-Skoog (MS) medium for three times, and the obtained protoplast was suspended into MS solid medium containing 0.6% agar and 1 ppm of NAA and BA, to make a cell number of 10^8/ml, and pored into a dish at 1 cm thick. The protoplast was cultured at 27° C. under darkness to regenerate a callus. Four weeks after the incubation, the agar medium containing a callus grown up to about 1 mm large, was cut to rectangular shape having 1 cm width, and put on MS solid medium containing various concentration of the compound H (4-chloro-3-[2,4-dichloro-5(2-propenyloxy)phenyl]-5-difluoromethoxy-1-methyl-1H-pyrazole, described in Toku Kai Hei 3-163063), and the sensitivity of tobacco callus to photobleaching herbicide was examined. As shoen in Table 1, it become apparent that the callus completely dies at 10 nM.

## C=CCOc1cc(-c2nn(C)c(OC(F)F)c2Cl)c(Cl)cc1Cl [compound H, 4-chloro-3-[2,4-dichloro-5(2-propenyloxy)phenyl]-5-difluoromethoxy-1-methyl-1H-pyrazole]
[1]; 24 hours
  amount of protoporphyrin IX: 1.3 μg/g fresh weight
[1]; 48 hours
  amount of protoporphyrin IX: 1.9 μg/g fresh weight
[2]; 20 nM, protoplast given 1×10^10
  Number of resistant cell lines: 100,000
[2]; 30 nM
  Number of resistant cell lines: 50,000
[2]; 50 nM
  Number of resistant cell lines: 40,000
[2]; 75 nM
  Number of resistant cell lines: 7,200
[2]; 150 nM
  Number of resistant cell lines: 254
[2]; 300 nM
  Number of resistant cell lines: 120
[2]; 600 nM
  Number of resistant cell lines: 66
[2]; 1200 nM
  Number of resistant cell lines: 46
[2]; 2,400 nM
  Number of resistant cell lines: 36
[2]; 5,000 nM
  Number of resistant cell lines: 0
[3]; 24 hours
  amount of protoporphyrin IX: 1.7 μg/g fresh weight
[3]; 48 hours
  amount of protoporphyrin IX: 4.6 μg/g fresh weight
[4]
  accumulation of protoporphyrin IX: little accumulation
[5]
  accumulation of protoporphyrin IX: little accumulation
[6]; 2.5 nM
  Survival Rate (%): 30%
[6]; 5 nM
  Survival Rate (%): 10%
[6]; 8 nM (last line of the table)
  Survival Rate (%): 0%
[6]; 10 nM
  Survival Rate (%): 0%
[6]; 20 nM
  Survival Rate (%): 0%
[6]; 40 nM
  Survival Rate (%): 0%
[6]; tobacco callus on MS solid medium
  concentration at which the callus completely dies: 10 nM
